# Experimental data published in PubChem BioAssay AID328 (DTP/NCI, 2004).
# “And” between values parts separate entries of the source, which are not always exact repeats. Equal entries are not always repeated. Toxic doses and inconclusive results are not listed.
# Tested on: BDF1 mice, P388 leukemia ip, median survival T/C
# Assay: NCI In Vivo Anticancer Drug Screen. Data for tumor model P388 Leukemia (intraperitoneal) in B6D2F1 (BDF1) mice
# Details: endpoint: median survival time, higher = longer survival
# Outline: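 In tumour-bearing mice, survival after compound treatment is set against the vehicle group and given as a quotient.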
# [1] = dose: 100.0 mg/kg/injection, schedule: Q04DX003 (ip), vehicle: saline with Tween-80
# [2] = dose: 200.0 mg/kg/injection, schedule: Q04DX003 (ip), vehicle: saline with Tween-80
# [3] = dose: 400.0 mg/kg/injection, schedule: Q04DX003 (ip), vehicle: saline with Tween-80
# [4] = dose: 100.0 mg/kg/injection, schedule: Q01DX009 (ip), vehicle: saline
# [5] = dose: 200.0 mg/kg/injection, schedule: Q01DX009 (ip), vehicle: saline
# [6] = dose: 50.0 mg/kg/injection, schedule: Q04DX003 (ip), vehicle: saline
smiles,measurement,setting,value
CCc1ccccc1NC(=O)c1cccc(Cl)c1,T/C,[1],95 % of control
same,T/C,[2],100 % of control
same,T/C,[3],104 % of control
O=C(O)c1ccccc1Oc1ccccc1C(=O)O,T/C,[4],100 % of control
same,T/C,[5],90 % of control
same,T/C,"dose: 400.0 mg/kg/injection, schedule: Q01DX009 (ip), vehicle: saline",104 % of control
C=CC(CO)N1CC1 (stereo not drawn),T/C,"dose: 6.25 mg/kg/injection, schedule: Q04DX003 (ip), vehicle: saline with Tween-80",100 % of control
same,T/C,"dose: 12.5 mg/kg/injection, schedule: Q04DX003 (ip), vehicle: saline with Tween-80",112 % of control
same,T/C,"dose: 25.0 mg/kg/injection, schedule: Q04DX003 (ip), vehicle: saline with Tween-80",104 % of control
ClC1=C(Cl)C2(Cl)C3C4CC(C5OC45)C3C1(Cl)C2(Cl)Cl (stereo not drawn),T/C,"dose: 3.13 mg/kg/injection, schedule: Q01DX009 (ip), vehicle: suspension in saline",96 % of control
CCc1nnc2ncccn12,T/C,"dose: 50.0 mg/kg/injection, schedule: Q01DX009 (ip), vehicle: saline",97 % of control and 102 % of control and 104 % of control
same,T/C,[4],104 % of control and 107 % of control
same,T/C,[5],91 % of control and 100 % of control
O=P(Oc1ccc(OP(=O)(N2CC2)N2CC2)cc1)(N1CC1)N1CC1,T/C,[6],168 % of control
same,T/C,"dose: 75.0 mg/kg/injection, schedule: Q04DX003 (ip), vehicle: saline",177 % of control
same,T/C,"dose: 115.0 mg/kg/injection, schedule: Q04DX003 (ip), vehicle: saline with Tween-80",190 % of control
same,T/C,"dose: 175.0 mg/kg/injection, schedule: Q04DX003 (ip), vehicle: saline with Tween-80",254 % of control
same,T/C,"dose: 264.0 mg/kg/injection, schedule: Q04DX003 (ip), vehicle: saline with Tween-80",150 % of control
same,T/C,[3],254 % of control
CC(=O)[C@]1(O)Cc2c(O)c3c(c(O)c2[C@@H](OC2CC(N)C(O)C(C)O2)C1)C(=O)c1c(O)cccc1C3=O (stereo partly drawn),T/C,"dose: 0.32 mg/kg/injection, schedule: Q04DX003 (ip), vehicle: water",185 % of control
same,T/C,"dose: 0.39 mg/kg/injection, schedule: Q04DX003 (ip), vehicle: water",203 % of control
same,T/C,"dose: 0.54 mg/kg/injection, schedule: Q04DX003 (ip), vehicle: water",101 % of control
same,T/C,"dose: 0.9 mg/kg/injection, schedule: Q04DX003 (ip), vehicle: water",92 % of control
same,T/C,"dose: 1.08 mg/kg/injection, schedule: Q04DX003 (ip), vehicle: water",115 % of control
CCCCCCCCCCCC1CCCC(C)N1 (stereo not drawn),T/C,"dose: 100.0 mg/kg/injection, schedule: Q04DX003 (ip), vehicle: saline",100 % of control
same,T/C,"dose: 200.0 mg/kg/injection, schedule: Q04DX003 (ip), vehicle: saline",95 % of control
same,T/C,"dose: 400.0 mg/kg/injection, schedule: Q04DX003 (ip), vehicle: saline",91 % of control and 95 % of control
O=C1c2ccccc2C(=O)C(N2CCOCC2)C1Cl (stereo not drawn),T/C,"dose: 3.0 mg/kg/injection, schedule: Q01DX009 (ip), vehicle: saline with Tween-80",98 % of control
same,T/C,"dose: 6.0 mg/kg/injection, schedule: Q01DX009 (ip), vehicle: saline with Tween-80",97 % of control
same,T/C,"dose: 12.0 mg/kg/injection, schedule: Q01DX009 (ip), vehicle: saline with Tween-80",100 % of control
Nc1ncnc2sc3c(c12)CCCC3,T/C,"dose: 100.0 mg/kg/injection, schedule: Q01DX009 (ip), vehicle: Klucel (hydroxypropylcellulose) (HPC)",105 % of control
same,T/C,"dose: 200.0 mg/kg/injection, schedule: Q01DX009 (ip), vehicle: Klucel (hydroxypropylcellulose) (HPC)",114 % of control
same,T/C,"dose: 400.0 mg/kg/injection, schedule: Q01DX009 (ip), vehicle: Klucel (hydroxypropylcellulose) (HPC)",108 % of control
COc1cc(NS(C)(=O)=O)ccc1Nc1c2cccc(C)c2nc2c(C)cccc12,T/C,"dose: 1.57 mg/kg/injection, schedule: Q01DX009 (ip), vehicle: saline",176 % of control
same,T/C,"dose: 3.13 mg/kg/injection, schedule: Q01DX009 (ip), vehicle: saline with Tween-80",150 % of control
same,T/C,"dose: 3.13 mg/kg/injection, schedule: Q01DX009 (ip), vehicle: saline",201 % of control
same,T/C,"dose: 6.25 mg/kg/injection, schedule: Q01DX009 (ip), vehicle: saline with Tween-80",169 % of control
same,T/C,"dose: 12.5 mg/kg/injection, schedule: Q01DX009 (ip), vehicle: saline with Tween-80",186 % of control
same,T/C,"dose: 14.6 mg/kg/injection, schedule: Q04DX003 (ip), vehicle: saline",163 % of control
same,T/C,"dose: 22.0 mg/kg/injection, schedule: Q04DX003 (ip), vehicle: saline",163 % of control
same,T/C,"dose: 25.0 mg/kg/injection, schedule: Q01DX009 (ip), vehicle: saline with Tween-80",231 % of control
same,T/C,"dose: 33.0 mg/kg/injection, schedule: Q04DX003 (ip), vehicle: saline",159 % of control
same,T/C,[6],227 % of control
same,T/C,[1],272 % of control
same,T/C,[2],109 % of control
CC1CC(C)(C)N=C(C[Si](C)(C)CC2=NC(C)(C)CC(C)O2)O1 (stereo not drawn),T/C,"dose: 25.0 mg/kg/injection, schedule: Q04DX003 (ip), vehicle: Klucel (hydroxypropylcellulose) (HPC)",114 % of control
same,T/C,"dose: 50.0 mg/kg/injection, schedule: Q04DX003 (ip), vehicle: Klucel (hydroxypropylcellulose) (HPC)",109 % of control
same,T/C,"dose: 100.0 mg/kg/injection, schedule: Q04DX003 (ip), vehicle: Klucel (hydroxypropylcellulose) (HPC)",113 % of control
